Literature values, collected in PMC13021292, “Safety, tolerability and pharmacokinetics of DNDI‐6148, a novel agent for leishmaniasis: A randomized, controlled, single ascending dose study in healthy participants” (British Journal of Clinical Pharmacology, 2025).

Set-up: method as in earlier work
Conditions: cited from earlier work

## CC1(C)OB(O)c2cc(NC(=O)c3ccc(F)cc3C(F)(F)F)ccc21 [acoziborole]
  metabolism and elimination in humans: slow liver metabolism and predominant hepato‐biliary elimination
